# According to patent publication US8748624B2, “Picolinamido-propanoic acid derivatives useful as glucagon receptor antagonists” (Janssen Pharmaceutica NV, priority 2011, dated 2014):
# Like-named read-outs stand apart in the source and are kept apart here.
# How the values were obtained:
# [1] = target: human glucagon receptor (GCGR) (Homo sapiens (Human), UniProt P47871); assay: Inhibition of 125I-glucagon binding to membranes from HEK293 cells expressing the human glucagon receptor
# Method in brief: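 Compound displacement of ¹²⁵I-glucagon (0.3 nM) was run for 2 h at room temperature in 50 mM HEPES pH 7.4 with 5 mM MgCl2, 1 mM CaCl2 and 0.2% BSA, using 6 μg/well membranes from stably transfected hGCGR HEK293 cells. Filter-bound counts gave IC50s, expressed as Ki.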
# human GCGR = human GCGR (Homo sapiens (Human), UniProt P47871); assay: Cellular functional assay, cAMP readout (glucagon-stimulated cAMP in HEK293 cells expressing human GCGR); type: cell-based; conditions: hGluc-1 HEK cells, LANCE TR-FRET, IC50 converted to Ki, average if tested more than once
# Chain of human GCGR (P47871 26-477): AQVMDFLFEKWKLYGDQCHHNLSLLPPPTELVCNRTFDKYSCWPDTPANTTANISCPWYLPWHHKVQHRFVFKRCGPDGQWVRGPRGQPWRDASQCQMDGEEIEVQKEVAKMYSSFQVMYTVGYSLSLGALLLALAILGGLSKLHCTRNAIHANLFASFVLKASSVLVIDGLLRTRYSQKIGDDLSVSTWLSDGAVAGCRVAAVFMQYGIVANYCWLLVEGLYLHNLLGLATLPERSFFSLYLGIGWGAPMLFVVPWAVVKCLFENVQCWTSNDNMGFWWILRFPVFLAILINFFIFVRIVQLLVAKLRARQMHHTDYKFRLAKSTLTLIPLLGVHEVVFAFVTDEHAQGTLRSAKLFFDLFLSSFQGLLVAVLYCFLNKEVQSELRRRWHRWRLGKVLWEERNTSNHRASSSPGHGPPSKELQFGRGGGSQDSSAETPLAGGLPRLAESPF
# Method in brief: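 HEK293 cells stably transfected with full-length human GCGR were exposed to compound for 30 min before a 5-min challenge with […] (final) glucagon. Readout was TR-FRET (LANCE) cAMP versus standard curve; IC50s fitted by non-linear regression and converted to Ki values.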
# [2] = membranes of hGluc-1 HEK cells, 125I-glucagon 0.3 nM, 2 hours room temperature, IC50 converted to Ki, average if tested more than once
# Chain of human glucagon receptor (GCGR) (P47871 26-477): as above
"Ki [1, 2] [nM]",Ki (human GCGR) [nM],Ki [1] [nM],Compound
67.8,120,–,"O=C(O)CCNC(=O)c1ccc(-c2cc(F)c(F)cc2CNc2ccc(-c3ccc(Cl)cc3Cl)cc2)cn1 [Compound 118, 3-(5-(2-(((2′,4′-dichloro-[1,1′-biphenyl]-4-yl)amino)methyl)-4,5-difluorophenyl)picolinamido)propanoic acid]"
84.6,700,–,"O=C(O)CCNC(=O)c1ccc(-c2cc(Cl)ccc2CNc2ccc(-c3cccc(OC(F)(F)F)c3)cc2)cn1 [Compound 129, 3-(5-(5-chloro-2-(((3′-(trifluoromethoxy)-[1,1′-biphenyl]-4-yl)amino)methyl)phenyl)picolinamido)propanoic acid]"
62.6,390,–,"O=C(O)CCNC(=O)c1ccc(-c2cc(Cl)ccc2CNc2ccc(-c3cccc(C(F)(F)F)c3)cc2)cn1 [Compound 130, 3-(5-(5-chloro-2-(((3′-(trifluoromethyl)-[1,1′-biphenyl]-4-yl)amino)methyl)phenyl)picolinamido)propanoic acid]"
71.3,1750,–,"O=C(O)CCNC(=O)c1ccc(-c2cc(Cl)ccc2CNc2ccc(-c3ccccc3C(F)(F)F)cc2)cn1 [Compound 131, 3-(5-(5-chloro-2-(((2′-(trifluoromethyl)-[1,1′-biphenyl]-4-yl)amino)methyl)phenyl)picolinamido)propanoic acid]"
123,1930,–,"O=C(O)CCNC(=O)c1ccc(-c2cc(Cl)ccc2CNc2ccc(-c3ccccc3OC(F)(F)F)cc2)cn1 [Compound 132, 3-(5-(5-chloro-2-(((2′-(trifluoromethoxy)-[1,1′-biphenyl]-4-yl)amino)methyl)phenyl)picolinamido)propanoic acid]"
104,2000,–,"O=C(O)CCNC(=O)c1ccc(-c2cc(Cl)ccc2CNc2ccc(-c3ccccc3F)cc2)cn1 [Compound 133, 3-(5-(5-chloro-2-(((2′-fluoro-[1,1′-biphenyl]-4-yl)amino)methyl)phenyl)picolinamido)propanoic acid]"
38.3,600,–,"O=C(O)CCNC(=O)c1ccc(-c2cc(Cl)ccc2CNc2ccc(-c3cccc(F)c3)cc2)cn1 [Compound 134, 3-(5-(5-chloro-2-(((3′-fluoro-[1,1′-biphenyl]-4-yl)amino)methyl)phenyl)picolinamido)propanoic acid]"
63.9,3000,–,"O=C(O)CCNC(=O)c1ccc(-c2cc(Cl)ccc2CNc2ccc(-c3ccccc3Cl)cc2)cn1 [Compound 135, 3-(5-(5-chloro-2-(((2′-chloro-[1,1′-biphenyl]-4-yl)amino)methyl)phenyl)picolinamido)propanoic acid]"
28.6,253,–,"O=C(O)CCNC(=O)c1ccc(-c2cc(Cl)ccc2CNc2ccc(-c3ccc(F)c(F)c3)cc2)cn1 [Compound 136, 3-(5-(5-chloro-2-(((3′,4′-difluoro-[1,1′-biphenyl]-4-yl)amino)methyl)phenyl)picolinamido)propanoic acid]"
61.1,425,–,"O=C(O)CCNC(=O)c1ccc(-c2cc(Cl)ccc2CNc2ccc(-c3cc(F)cc(F)c3)cc2)cn1 [Compound 137, 3-(5-(5-chloro-2-(((3′,5′-difluoro-[1,1′-biphenyl]-4-yl)amino)methyl)phenyl)picolinamido)propanoic acid]"
–,121,22.9,"O=C(O)CCNC(=O)c1ccc(-c2cc(Cl)ccc2CNc2ccc(-c3ccc(F)cc3Cl)c(Cl)c2)cn1 [Compound 138, 3-(5-(5-chloro-2-(((2,2′-dichloro-4′-fluoro-[1,1′-biphenyl]-4-yl)amino)methyl)phenyl)picolinamido)propanoic acid]"
29.1,120,–,"Cc1cc(-c2ccc(NCc3ccc(Cl)cc3-c3ccc(C(=O)NCCC(=O)O)nc3)cc2Cl)ccc1F [Compound 139, 3-(5-(5-chloro-2-(((2-chloro-4′-fluoro-3′-methyl-[1,1′-biphenyl]-4-yl)amino)methyl)phenyl)picolinamido)propanoic acid]"
21.5,84.3,–,"O=C(O)CCNC(=O)c1ccc(-c2cc(Cl)ccc2CNc2ccc(-c3ccc(OC(F)(F)F)cc3)c(Cl)c2)cn1 [Compound 140, 3-(5-(5-chloro-2-(((2-chloro-4′-(trifluoromethoxy)-[1,1′-biphenyl]-4-yl)amino)methyl)phenyl)picolinamido)propanoic acid]"
30.9,138,–,"O=C(O)CCNC(=O)c1ccc(-c2cc(Cl)ccc2CNc2ccc(-c3c(F)cccc3Cl)cc2)cn1 [Compound 141, 3-(5-(5-chloro-2-(((2′-chloro-6′-fluoro-[1,1′-biphenyl]-4-yl)amino)methyl)phenyl)picolinamido)propanoic acid]"
31.3,225,–,"O=C(O)CCNC(=O)c1ccc(-c2cc(Cl)ccc2CNc2ccc(-c3ccc(F)cc3C(F)(F)F)c(Cl)c2)cn1 [Compound 142, 3-(5-(5-chloro-2-(((2-chloro-4′-fluoro-2′-(trifluoromethyl)-[1,1′-biphenyl]-4-yl)amino)methyl)phenyl)picolinamido)propanoic acid]"
28.2,106,–,"COc1ccc(-c2ccc(NCc3ccc(Cl)cc3-c3ccc(C(=O)NCCC(=O)O)nc3)cc2)c(Cl)c1 [Compound 143, 3-(5-(5-chloro-2-(((2′-chloro-4′-methoxy-[1,1′-biphenyl]-4-yl)amino)methyl)phenyl)picolinamido)propanoic acid]"
12.4,23,–,"O=C(O)CCNC(=O)c1ccc(-c2cc(Cl)ccc2CNc2ccc(-c3ccc(F)c(C(F)(F)F)c3)c(Cl)c2)cn1 [Compound 144, 3-(5-(5-chloro-2-(((2-chloro-4′-fluoro-3′-(trifluoromethyl)-[1,1′-biphenyl]-4-yl)amino)methyl)phenyl)picolinamido)propanoic acid]"
36.3,68.1,–,"Cc1ccc(C(=O)Nc2ccc(-c3ccc(Cl)cc3)cc2)c(-c2ccc(C(=O)NCCC(=O)O)nc2)c1 [Compound 145, 3-(5-(2-((4′-chloro-[1,1′-biphenyl]-4-yl)carbamoyl)-5-methylphenyl)picolinamido)propanoic acid]"
28.1,268,–,"Cc1cc(-c2ccc(NCc3ccc(Cl)cc3-c3ccc(C(=O)NCCC(=O)O)nc3)cc2)ccc1F [Compound 146, 3-(5-(5-chloro-2-(((4′-fluoro-3′-methyl-[1,1′-biphenyl]-4-yl)amino)methyl)phenyl)picolinamido)propanoic acid]"
15.7,60,–,"O=C(O)CCNC(=O)c1ccc(-c2cc(Cl)ccc2CNc2ccc(-c3ccc(C(F)(F)F)cc3Cl)cc2)cn1 [Compound 147, 3-(5-(5-chloro-2-(((2′-chloro-4′-(trifluoromethyl)-[1,1′-biphenyl]-4-yl)amino)methyl)phenyl)picolinamido)propanoic acid]"
18.7,34,–,"Cc1cc(Cl)ccc1-c1ccc(NCc2ccc(Cl)cc2-c2ccc(C(=O)NCCC(=O)O)nc2)cc1 [Compound 148, 3-(5-(5-chloro-2-(((4′-chloro-2′-methyl-[1,1′-biphenyl]-4-yl)amino)methyl)phenyl)picolinamido)propanoic acid]"
40,430,–,"O=C(O)CCNC(=O)c1ccc(-c2cc(Cl)ccc2CNc2ccc(-c3ccc(F)cc3C(F)(F)F)cc2)cn1 [Compound 149, 3-(5-(5-chloro-2-(((4′-fluoro-2′-(trifluoromethyl)-[1,1′-biphenyl]-4-yl)amino)methyl)phenyl)picolinamido)propanoic acid]"
27.7,73.3,–,"O=C(O)CCNC(=O)c1ccc(-c2cc(Cl)ccc2CNc2ccc(-c3ccc(F)c(Cl)c3)cc2)cn1 [Compound 150, 3-(5-(5-chloro-2-(((3′-chloro-4′-fluoro-[1,1′-biphenyl]-4-yl)amino)methyl)phenyl)picolinamido)propanoic acid]"
16.5,113,–,"Cc1cc(F)ccc1-c1ccc(NCc2ccc(Cl)cc2-c2ccc(C(=O)NCCC(=O)O)nc2)cc1 [Compound 151, 3-(5-(5-chloro-2-(((4′-fluoro-2′-methyl-[1,1′-biphenyl]-4-yl)amino)methyl)phenyl)picolinamido)propanoic acid]"
31.6,140,–,"O=C(O)CCNC(=O)c1ccc(-c2cc(Cl)ccc2CNc2ccc(-c3ccc(F)cc3Cl)cc2)cn1 [Compound 152, 3-(5-(5-chloro-2-(((2′-chloro-4′-fluoro-[1,1′-biphenyl]-4-yl)amino)methyl)phenyl)picolinamido)propanoic acid]"
32.9,28,–,"Cc1cc(Cl)ccc1-c1ccc(NC(=O)c2ccc(Cl)cc2-c2ccc(C(=O)NCCC(=O)O)nc2)cc1 [Compound 153, 3-(5-(5-chloro-2-((4′-chloro-2′-methyl-[1,1′-biphenyl]-4-yl)carbamoyl)phenyl)picolinamido)propanoic acid]"
235,2200,–,"CC(Nc1ccc(-c2ccc(F)cc2)cc1)c1ccc(Cl)cc1-c1ccc(C(=O)NCCC(=O)O)nc1 (centres unmarked) [Compound 155, 3-(5-(5-chloro-2-(1-((4′-fluoro-[1,1′-biphenyl]-4-yl)amino)ethyl)phenyl)picolinamido)propanoic acid]"
37.8,161,–,"CC(=O)c1ccc(-c2ccc(NCc3ccc(Cl)cc3-c3ccc(C(=O)NCCC(=O)O)nc3)cc2)cc1 [Compound 156, 3-(5-(2-(((4′-acetyl-[1,1′-biphenyl]-4-yl)amino)methyl)-5-chlorophenyl)picolinamido)propanoic acid]"
